According to patent publication US4139531A, “1-Nitro-9-alkylaminoalkylaminoacridines and salts thereof” (Politechnika Gdanska, priority 1976, dated 1979):
Several values for one entry are separate records, joined by “and”; a condition that tells them apart may be missing. Identical values can stand only once.

Experiments:
[1] = test system: rats and rabbits; test: Prolonged (three-month) toxicity investigations on rats and rabbits; format: in vivo
Method: Prolonged investigations were carried out on rats and rabbits during the whole three-month-exposition period of time, introducing dosages corresponding to 1/150, 1/100 and 1/50 of the LD50 -value. This last dosage was a dosage which was maximally tolerated during this period of time.

[2] = test system: rabbits and cats; test: Arterial blood pressure, respiratory function, electrocardiogram and lethal dosage in rabbits and cats; format: in vivo
[3] = test system: rats; test: Reproduction and offspring development in rats; format: in vivo
[4] = Acute toxicity, LD50, mouse; details: in vivo, observations over 72 hours
Method: (§1) The biological activity analysis was supported by detailed pharmacologic examinations. After observations made over 72 hours, it was determined that the LD50 -value for the preparation C-846 for mice and rats (in mg/kg), was as follows: […]

[5] = test system: isolated small intestine of rat; test: Spasmolytic activity, isolated small intestine of rat; details: concentration of 10^-5
[6] = test system: small intestine; muscular coat of the urinary bladder; test: Spasmolytic activity in vivo, small intestine and urinary bladder of rabbit and cat; details: intravenous, dosages of more than 5 mg/kg
[7] = Maximum tolerance dosage (MTD), mouse; details: in vivo
Method: (§2) Moreover, the maximum tolerance dosage (MTD) for mice and rats was determined (in mg/kg), as follows: […]

[8] = test system: central nervous system; format: in vivo, mice
[9] = Local irritating action; format: in vivo
[10] = test system: isolated small intestine of guinea-pig; test: Spasmolytic activity, isolated small intestine of guinea-pig; details: concentration 5 × 10^-6
[11] = Maximum tolerance dosage (MTD), rat; details: in vivo
Method: as §2

[12] = Acute toxicity, LD50, rat; details: in vivo, observations over 72 hours
Method: as §1

[13] = test system: Crocker mice sarcoma (Sa-180); test: Growth inhibition of the Crocker mice sarcoma (Sa-180); format: in vivo; details: dosage of 0.2 mg/kg, intraperitoneally, dihydrochloride
Method: The growth inhibition of the Crocker mice sarcoma (Sa-180).
For this investigation, mice of about three months in age and a weight of about 25 g were used. These animals were inoculated with a section of the neoplasm (Sa-180) and were divided into groups: the first of control - 10 mice; and two to four groups of "under treatment" ones (seven mice each).
The compounds investigated were administered intraperitoneally in appropriate doses, after previous determination of the maximum tolerance dosage.
A criterion of the evaluation the anti-neoplastic activity of the compounds tested was accepted wherein the percent difference between mean weights of the nodules (tumours) of control mice and of those which received the preparations, taking into account the toxic effects.

[14] = large dosages, more than 8 mg/kg
[15] = rabbits and cats, intraperitoneal, dosages up to 10 mg/kg

With `CC(C)NCCCNc1c2ccccc2nc2cccc([N+](=O)[O-])c12.Cl.Cl` [Example C-846, 1-nitro-9-isopropylaminopropylaminoacridine dihydrochloride] the blood coagulation time ([1]; in the third month) was “a certain prolongation was noted”, the “histology, germinal epithelium / testicles” value ([1]; in vivo) was “some degenerative lesions appeared in a range of the germinal epithelium, in the range of testicles” and the “histology, intestinal epithelium and glandular texture” value ([1]; in vivo) was “a desquamation (desfoliation) of the intestinal epithelium and an atrophy of the glandular texture”. For the same compound, the “histology, lymphatic system” value ([1]; in vivo) was “a decrease in the amount of the reproductive centers was noted, as well as a decrease in the amount of the small lymphocytes”, the “histology, other internal organs” value ([1]; in vivo) was “did not show any other microscopic changes” and the “histology, spermatogenesis” value ([1]; in vivo) was “some disturbances in spermatogenesis, a decrease in the amount of sperm cells”. For the same compound, the “activity of the acid phosphatase” value ([1]; only after the highest dosages, prolonged time of exposition) was “increase in activity of the acid phosphatase was observed”, the “hepatic functional tests (AlAt, AspAt, acid and alkaline phosphatases, thymol turbidity test)” value ([1]; rats and rabbits, three months) was “did not show an occurrence of any pathologic lesions” and the “influence on the peripheral blood or medular hematopoietic system” value ([1]; rats and rabbits, three months) was “could not be proved, that the preparation had influence”. For the same compound, the “renal tests (creatinine clearance, glomerular filterability)” value ([1]; rats and rabbits, three months) was “did not show any deviation from the norm”, the “dosage maximally tolerated during three months” value ([1]; rats and rabbits, three-month exposition) was 1/50 and the “effect on blood pressure” value ([2]; intravenous injection, 2 mg/kg) was “insignificant and transient hypotony”. The effect on respiration ([2]; intravenous injection, 2 mg/kg) was “instinctive acceleration of deepened respiration”, the PQ segment [2, 14] was “prolongation of the PQ segment” and the QRS-Complex [2, 14] was “dilation of the QRS-Complex”. The changes in electrocardiograms [2, 14] was “transient changes in electrocardiograms were noted, due to the disturbances of the atrio-ventricular and intra-ventricular conductivity”, the “effects of the lethal dosages” value ([2]; rabbits and cats, about 15 mg/kg, i.v.) was “permanent hypotony and respiration disturbances or even apnoea” and the lethal dosages ([2]; rabbits and cats, i.v.) was about 15 mg/kg. The “effect on the arterial blood pressure” value [2, 15] was “did not have any effect”, the “effect on the respiratory function” value [2, 15] was “did not have any effect” and the “amount of infant animals in the brood” value [3] was “decreased”. For the same compound, the “capacity to conceive or induce conception / ability of females to become pregnant” value [3] was “did not inhibit”, the macroscopic malformations [3] was “no macroscopic malformations were observed” and the “ontogenetic development of infant animals” value [3] was “retarded”. The LD50 at 72 h ([4]; iv) was 2.2 ± 0.1 mg/kg, the LD50 at 72 h ([4]; po) was 126 ± 24.7 mg/kg and the “muscular tension and spontaneous intestine peristalsis (spasmolytic activity)” value [5] was “a decrease was noted in the muscular tension and an atrophy of spontaneous intestine peristalsis”. For the same compound, the “spasmolytic activity regarding the small intestine and the muscular coat of the urinary bladder” value [6] was “such an activity”, the MTD ([7]; iv) was 1.85 mg/kg and the MTD ([7]; po) was 27.2 mg/kg. The “influence on spontaneous and forced motor activity” value ([8]; mice, dosages up to 1/10 LD50) was “did not influence in such dosages in essential manner”, the “influence on the action of hypnotic agents (luminal, chloral hydrate) and of convulsant agents (Cardiazol, strychnine)” value ([8]; mice, dosages up to 1/10 LD50) was “did not influence” and the “activity on the central nervous system” value ([8]; mouse, in vivo) was “did not demonstrate any evident and oriented activity”. For the same compound, the local irritating action ([9]; concentrations of from 0.05 to 1.0%) was “exerted a local irritating action”, the “local changes caused by the intravenous injection” value ([9]; phosphate buffer solution at pH 7 as solvent) was “could be eliminated” and the “muscular tension and spontaneous intestine peristalsis (spasmolytic activity)” value [10] was “a decrease was noted in the muscular tension and an atrophy of spontaneous intestine peristalsis”. For the same compound, the MTD ([11]; iv) was 0.63 mg/kg, the MTD ([11]; po) was 75 mg/kg and the LD50 at 72 h ([12]; iv) was 0.95 ± 0.1 mg/kg. It also gave an LD50 at 72 h ([12]; po) of 127 ± 17.8 mg/kg.

In the case of `CCNCCCNc1c2ccccc2nc2cccc([N+](=O)[O-])c12.Cl.Cl` [Example C-845, 1-nitro-9-ethylaminopropylaminoacridine dihydrochloride], the “inhibition values of Crocker's sarcoma (Sa-180)” value [13] is reported as 48% and 49% and 57%.
